Laboratory results published in patent US20080103127A1, “METHODS FOR TREATING DISRUPTIVE BEHAVIOR DISORDERS” (priority 2006, published 2008).

Tests used:
submissive rats [1] = experiment: Reduction of Submissive Behavior Model (RSBM) of depression, dominant-submissive rat food competition test; assay type: in vivo, Sprague-Dawley rats
Text: In this study, the effects of COMPOUND #7 on dominant or submissive behavior in pairs of rats competing for food are examined. It has been shown that anti-manic drugs, including anticonvulsants, decrease dominance and antidepressant drugs reduce submissiveness. This model uses dominant behavior as a model of mania and submissive behavior as a model of depression. The dominance and submissiveness is defined in a competition test and measured as the relative success of two food-restricted rats to gain access to a feeder. Rats are randomly paired and placed in an apparatus allowing them to compete for a food reward. The dominant-submissive relationship develops over a 2-week period. The submissive or dominant animals in pairs selected after 2 weeks of training were treated orally […] (b.i.d.) with COMPOUND #7 at 3 or 30 mg/kg for 5 weeks. The partner of the drug-treated animal was treated with vehicle.
The objective of this study was to determine if COMPOUND #7 is active in the Reduction of Submissive Behavior Model (RSBM) of depression and the Reduction of Dominant Behavior Model (RDBM) of mania. Measurements were made at two doses (3 and 30 mg/kg) after oral twice a day (b.i.d.) administration. The effect of the drug in the RSBM was compared to the effect of fluoxetine (10 mg/kg) and vehicle (0.5% methylcellulose). The effect of the drug in the RDBM was compared with the effect of lithium (100 mg/kg) and vehicle (0.5% methylcellulose). The endpoints measured were the development of a significant reduction of submissive or dominant behavior and its time of onset.
The DSR developed by two rats competing for food uses the apparatus in FIG. 1. The methodology and equipment are described in several publications. (See, Malatynska E, Goldenberg R, Shuck L, Haque A, Zamecki P, Crites G, Schindler N, Knapp R J. Reduction of submissive behavior in rats: a test for antidepressant drug activity. Pharmacology 2002; 64:8; Malatynska E, Rapp R, Crites G. Dominant behavior measured in a competition test as a model of mania. In: International Behavioral Neuroscience Society Meeting, ed. IBNSCapri, Italy, 2002, p 26.; Bonnet U. Moclobemide: therapeutic use and clinical studies. CNS Drug Rev 2003; 9:97; Danysz W, Plaznik A, Kostowski W, Malatynska E, Jarbe T U, Hiltunen A J, Archer T. Comparison of desipramine, amitriptyline, zimeldine and alaproclate in six animal models used to investigate antidepressant drugs. Pharmacol Toxicol 1988; 62:42; Knapp R J, Goldenberg R, Shuck C, Cecil A, Watkins J, Miller C, Crites G, Malatynska E. Antidepressant activity of memory-enhancing drugs in the reduction of submissive behavior model. Eur J Pharmacol 2002; 440:27; Kostowski W, Malatynska E, Plaznik A, Dyr W, Danysz W. Comparative studies on antidepressant action of alprazolam in different animal models. Pol J Pharmacol Pharm 1986; 38, 471; Malatynska E, De Leon I, Allen D, Yamamura Hi. Effects of amitriptyline on GABA-stimulated ^36Cl^− uptake in relation to a behavioral model of depression. Brain Res Bull 1995; 37:53; Malatynska E, Kostowski W. The effect of antidepressant drugs on dominance behavior in rats competing for food. Pol J Pharmacol Pharm 1984; 36:531; Malatynska E, Kostowski W. Desipramine antagonizes clonidine-induced suppression of dominance in rats: possible involvement of amygdaloid nuclei. Pol J Pharmacol Pharm 1988; 40:357).
In the experiments described in this report Sprague-Dawley rats weighing 160 to 180 g were used. Testing for the development of a DSR between paired rats begins with the random assignment of rats into pairs. Rats from pairs are housed separately between test sessions with other animals in groups of four. The animals are food-deprived overnight with free access to water.
The test involves placing each member of a pair in opposite chambers of the testing apparatus. These chambers are connected through a narrow tunnel with a small container of sweetened milk at the center. […]

dominant rats = conditions: administered to dominant rats; cited from earlier work
submissive rats [2] = conditions: cited from earlier work; for submissive behavior: treatment of the submissive subject for 3 weeks

| SMILES | competitive behavior of dominant rats (dominant rats) | submissive behavior (submissive rats [2]) | further results |
| --- | --- | --- | --- |
| CC(N)Cc1ccccc1 (stereo not shown) [amphetamine, reference compound] |  |  | effect of treatment of submissive rats (psychostimulant) (submissive rats [1]; unpublished observation): ineffective |
| NC(=O)N1c2ccccc2C=Cc2ccccc21 [carbamazepine] | significantly reduced competitive behavior |  |  |
| Clc1cccc(Cl)c1N=C1NCCN1 [clonidine] | significantly reduced competitive behavior |  |  |
| CNCCCN1c2ccccc2CCc2ccccc21 [desipramine] |  | reduced submissive behavior | effect on submissive behavior after cessation of treatment (submissive rats [2]; after cessation of treatment): attenuated |
| CN1C(=O)CN=C(c2ccccc2)c2cc(Cl)ccc21 [diazepam] |  |  | effect of treatment of submissive rats (anxiolytic) (submissive rats [2]; Pharmacology 2002, 64:8): ineffective |
| CNCCC(Oc1ccc(C(F)(F)F)cc1)c1ccccc1 (stereo not shown) [fluoxetine, reference compound] |  | reduced submissive behavior | onset of significant effect on submissive rats (time of treatment) (submissive rats [1]; 10 mg/kg i.p. once a day, previous experimental set): 3 weeks |
| CN(C)CCCN1c2ccccc2CCc2ccccc21 [imipramine] |  | reduced submissive behavior |  |
| CCCC(CCC)C(=O)[O-].[Na+] [sodium valproate] | significantly reduced competitive behavior |  |  |
